# Reference: ChEMBL document CHEMBL1201862, “PubChem BioAssay data set” (2004)
# Active and inactive are the calls of the source.
# Key:
# [1] = restored growth of temperature-sensitive Burl-1 yeast – whole organism, S. cerevisiae, Burl-1 ts mutant, luminescence, counter-screen for SUMOylation pathway inhibitor project, dose response (AID 463199); assay type: functional
# [2] = tested on: A-375; experiment: proliferation inhibition in MITF-low A375 cells – cell-based, cherry-pick samples, set 2, counter-screen for MITF modulator project, dose response (AID 540335); assay type: functional; details: Homo sapiens
# [3] = tested on: A-375; experiment: MITF: Counter assay: A375 proliferation Measured in Cell-Based System Using Plate Reader - 2084-03_Inhibitor_Dose_DryPowder_Activity. [Related pubchem assays (depositor defined):AID488944]; assay type: functional; details: Homo sapiens
# [4] = target: Lysine-specific demethylase 4C (Homo sapiens, UniProt Q9H3R0); experiment: inhibition of JMJD2C H3K9me3 demethylation – biochemical, DELFIA europium, cherry-picked samples, dose response (AID 488835); assay type: functional
# [5] = tested on: Vero; experiment: viability of Vero cells under compound – cytotoxicity control for flavivirus capping enzyme inhibitors (AID 588742); assay type: functional; details: Chlorocebus sabaeus
# [6] = target: NAD-dependent protein deacylase sirtuin-5, mitochondrial (Homo sapiens, UniProt Q9NXA8); experiment: sirtuin-5 deacylation blockers, concentration series – biochemical, fluorescence imaging, cherry-pick, set 5, dose response (AID 720591);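 also: desuccinylation of succinyl peptide AMC substrate read as fluorescence after trypsin release; potency of inhibitors that lower fluorescence and may act on trypsin instead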
# [7] = target: Lysine-specific demethylase 4A (Homo sapiens, UniProt O75164); experiment: inhibition of JMJD2A H3K9me3 demethylation – biochemical, DELFIA europium, cherry-picked samples, selectivity assay for GASC-1 inhibitor project, dose response (AID 488840)
# [8] = target: T1, Corticotropin-releasing factor receptor 2/Corticotropin-releasing factor-binding protein (Homo sapiens, UniProt P24387+Q13324); experiment: activators of CRF receptor 2 with binding protein – uHTS hits, confirmation (AID 602473); assay type: functional; details: read-out: EC50_Mean
# T1 sequence (Q13324 whole entry): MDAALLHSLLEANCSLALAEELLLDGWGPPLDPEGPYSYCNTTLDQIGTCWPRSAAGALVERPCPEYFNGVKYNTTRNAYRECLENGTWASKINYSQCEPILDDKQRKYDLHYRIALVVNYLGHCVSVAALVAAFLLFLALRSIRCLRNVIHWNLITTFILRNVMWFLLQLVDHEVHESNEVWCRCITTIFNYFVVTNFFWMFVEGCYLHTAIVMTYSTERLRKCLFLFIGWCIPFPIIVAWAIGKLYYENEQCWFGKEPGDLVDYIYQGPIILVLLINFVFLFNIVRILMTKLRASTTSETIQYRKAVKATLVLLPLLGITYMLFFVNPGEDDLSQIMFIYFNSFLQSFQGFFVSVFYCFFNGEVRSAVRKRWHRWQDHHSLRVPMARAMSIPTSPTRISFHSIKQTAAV
# T1 sequence (P24387 whole entry): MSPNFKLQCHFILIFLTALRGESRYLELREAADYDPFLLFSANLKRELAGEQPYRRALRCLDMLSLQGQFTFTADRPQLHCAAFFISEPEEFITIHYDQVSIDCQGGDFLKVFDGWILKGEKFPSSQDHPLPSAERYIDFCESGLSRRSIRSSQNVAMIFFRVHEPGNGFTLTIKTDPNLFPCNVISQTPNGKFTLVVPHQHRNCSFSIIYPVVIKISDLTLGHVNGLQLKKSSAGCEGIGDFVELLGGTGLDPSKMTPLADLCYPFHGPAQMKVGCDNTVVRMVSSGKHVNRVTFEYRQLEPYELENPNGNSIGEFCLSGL
# [9] = target: T1, Corticotropin-releasing factor receptor 2/Corticotropin-releasing factor-binding protein; experiment: Dose Response confirmation of uHTS hits for small molecule antagonists of the CRF-binding protein and CRF-R2 receptor complex.; assay type: functional; details: read-out: IC50_Mean
# [10] = target: Genome polyprotein (dengue virus type 2, UniProt P29990); experiment: flavivirus cap methylation enzyme inhibition – biochemical, confirmation dose response, primary screen (AID 588689); assay type: functional
# [11] = target: T2, Mannose-6-phosphate isomerase (Homo sapiens, UniProt P34949); experiment: phosphomannose isomerase inhibition – biochemical, fluorescence intensity, confirmation (AID 1535)
# T2 sequence (P34949 whole entry): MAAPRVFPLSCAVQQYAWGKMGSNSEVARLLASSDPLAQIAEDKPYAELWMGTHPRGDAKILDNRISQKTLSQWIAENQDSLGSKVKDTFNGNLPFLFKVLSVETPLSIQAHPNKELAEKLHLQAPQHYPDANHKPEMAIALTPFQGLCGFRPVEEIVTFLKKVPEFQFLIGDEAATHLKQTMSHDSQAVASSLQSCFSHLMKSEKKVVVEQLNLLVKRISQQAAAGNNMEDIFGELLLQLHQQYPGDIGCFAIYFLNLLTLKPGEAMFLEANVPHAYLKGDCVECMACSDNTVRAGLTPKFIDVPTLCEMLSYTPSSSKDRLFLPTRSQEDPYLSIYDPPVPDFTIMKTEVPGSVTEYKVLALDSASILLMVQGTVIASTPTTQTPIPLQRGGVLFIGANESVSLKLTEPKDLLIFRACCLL
# [12] = target: Phosphoethanolamine/phosphocholine phosphatase (Homo sapiens, UniProt Q8TCT1); experiment: SAR assay for compounds that inhibit PHOSPHO1. [Related pubchem assays (depositor defined):AID1545, AID1565, AID1574]
# [13] = target: Phosphomannomutase 2 (Homo sapiens, UniProt O15305); experiment: Counter screen SAR assay for PMM2 inhibitors via a fluorescence intensity assay. [Related pubchem assays (depositor defined):AID1545, AID1574]
# [14] = T. cruzi infection blockers in NIH3T3 cells – beta-gal luminescence, NIH3T3 host cells, confirmation (AID 2630); assay type: functional, cell-based; details: Mus musculus
# [15] = tested on: INS1; experiment: beta-cell survival under cytokine stress – INS-1E, ATP luminescence, dry powder, dose response (AID 488844); assay type: functional, cell-based; details: Rattus norvegicus
# [16] = target: T3, Dual specificity protein phosphatase 3 (Homo sapiens, UniProt P51452); experiment: VHR1 phosphatase inhibitors, primary screen, biochemical, absorbance, uHTS (AID 1654)
# [17] = target: T4, Tyrosine-protein phosphatase non-receptor type 22 (Homo sapiens, UniProt Q9Y2R2); assay type: functional
# T4 sequence (Q9Y2R2 whole entry): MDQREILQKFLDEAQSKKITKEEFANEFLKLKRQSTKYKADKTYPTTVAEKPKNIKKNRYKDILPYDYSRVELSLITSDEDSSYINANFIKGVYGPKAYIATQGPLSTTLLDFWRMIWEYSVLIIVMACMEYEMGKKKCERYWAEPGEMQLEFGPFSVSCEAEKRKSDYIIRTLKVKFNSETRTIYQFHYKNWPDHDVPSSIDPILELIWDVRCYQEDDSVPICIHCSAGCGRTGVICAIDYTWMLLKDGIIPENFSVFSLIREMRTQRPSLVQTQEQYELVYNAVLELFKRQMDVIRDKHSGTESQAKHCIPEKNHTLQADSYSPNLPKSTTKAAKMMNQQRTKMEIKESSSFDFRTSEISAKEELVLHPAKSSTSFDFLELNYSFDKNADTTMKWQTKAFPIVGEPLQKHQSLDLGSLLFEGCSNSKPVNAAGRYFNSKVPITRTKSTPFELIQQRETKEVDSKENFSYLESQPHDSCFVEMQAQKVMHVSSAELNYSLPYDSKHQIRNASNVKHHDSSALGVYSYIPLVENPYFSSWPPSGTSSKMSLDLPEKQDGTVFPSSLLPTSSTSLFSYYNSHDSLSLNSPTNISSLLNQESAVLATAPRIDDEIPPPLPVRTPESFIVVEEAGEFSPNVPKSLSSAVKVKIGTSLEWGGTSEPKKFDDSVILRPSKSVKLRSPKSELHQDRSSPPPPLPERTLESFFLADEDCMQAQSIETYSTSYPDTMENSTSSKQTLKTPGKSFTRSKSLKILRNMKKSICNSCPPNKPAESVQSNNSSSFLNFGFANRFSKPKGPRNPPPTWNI
# [18] = Luminescence Cell-Based Dose Response HTS to Identify Inhibitors of 5'UTR Stem-Loop Driven Prion Protein mRNA Translation in H4 Neuroglioblastoma Cells. [Related pubchem assays: 1827 (Project Summary), 1813 (Primary HTS)]; assay type: functional
# [19] = target: T4, Tyrosine-protein phosphatase non-receptor type 22; assay type: functional; remark: listed apart in the source
# [20] = luciferase reporter signal suppression in cells – H4 neuroglioma cells, luminescence, dose response (AID 1990); assay type: functional, cell-based
# [21] = target: T5, Tyrosine-protein phosphatase non-receptor type 7 (Homo sapiens, UniProt P35236); assay type: functional
# T5 sequence (P35236 whole entry): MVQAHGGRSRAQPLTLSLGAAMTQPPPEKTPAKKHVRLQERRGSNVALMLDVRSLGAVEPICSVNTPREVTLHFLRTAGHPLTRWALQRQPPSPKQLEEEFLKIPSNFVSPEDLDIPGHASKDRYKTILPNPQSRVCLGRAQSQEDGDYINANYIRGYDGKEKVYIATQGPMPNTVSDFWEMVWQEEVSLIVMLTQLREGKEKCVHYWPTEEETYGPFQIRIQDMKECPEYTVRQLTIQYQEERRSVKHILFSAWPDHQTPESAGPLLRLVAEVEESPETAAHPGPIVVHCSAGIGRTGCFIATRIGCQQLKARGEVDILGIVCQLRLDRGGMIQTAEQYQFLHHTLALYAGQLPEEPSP
# [22] = target: Induced myeloid leukemia cell differentiation protein Mcl-1 (Homo sapiens, UniProt Q07820); experiment: blockers of MCL1 binding to BIM peptide – biochemical, fluorescence polarization, BIM-BH3 peptide, 1536-well, dose response (AID 2217)
# [23] = target: T3, Dual specificity protein phosphatase 3; experiment: VHR1 phosphatase inhibitors, biochemical (AID 1878)
# [24] = target: Bcl-2-like protein 1 (Homo sapiens, UniProt Q07817); experiment: blockers of BCLXL peptide binding – biochemical, fluorescence polarization, 1536-well, selectivity assay for MCL1 inhibitor project, dose response (AID 2218)
# [25] = alpha-synuclein stem-loop luciferase translation blockers – H4 neuroglioma cells, luminescence, confirmation (AID 1988); assay type: functional, cell-based
# [26] = target: T6, Dual specificity protein phosphatase 6 (Rattus norvegicus, UniProt Q64346); experiment: inhibition of rat DUSP6 enzyme activity – biochemical, in vitro, primary screen (AID 425)
# T6 sequence (Q64346 whole entry): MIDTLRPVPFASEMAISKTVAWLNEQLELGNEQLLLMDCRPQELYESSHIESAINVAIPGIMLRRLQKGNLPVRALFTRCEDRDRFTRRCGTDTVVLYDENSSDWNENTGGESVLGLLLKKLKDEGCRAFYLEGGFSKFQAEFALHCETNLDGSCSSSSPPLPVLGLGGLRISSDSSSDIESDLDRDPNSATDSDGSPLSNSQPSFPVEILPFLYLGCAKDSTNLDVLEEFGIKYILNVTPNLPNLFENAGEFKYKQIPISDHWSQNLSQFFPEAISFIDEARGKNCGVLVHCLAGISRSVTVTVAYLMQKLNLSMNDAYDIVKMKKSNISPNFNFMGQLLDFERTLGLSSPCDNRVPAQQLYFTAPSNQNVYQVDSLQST
# [27] = tested on: INS1; experiment: INS-1E survival protection against cytokine death – cell-based, luminescence, retest, dose response (AID 449756); assay type: functional; details: Rattus norvegicus;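 also: cell death triggered by IL-1 beta plus TNF-alpha plus IFN-gamma mixture; protective hits raise ATP signal compared with cytokine alone wells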
# T3 sequence (P51452 whole entry): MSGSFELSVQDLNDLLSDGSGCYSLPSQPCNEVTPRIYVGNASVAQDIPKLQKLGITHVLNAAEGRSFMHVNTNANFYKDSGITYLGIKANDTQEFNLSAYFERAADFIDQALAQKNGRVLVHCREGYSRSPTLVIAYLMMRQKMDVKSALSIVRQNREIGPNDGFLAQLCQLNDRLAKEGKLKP
# Chain of Phosphoethanolamine/phosphocholine phosphatase (Q8TCT1 whole entry): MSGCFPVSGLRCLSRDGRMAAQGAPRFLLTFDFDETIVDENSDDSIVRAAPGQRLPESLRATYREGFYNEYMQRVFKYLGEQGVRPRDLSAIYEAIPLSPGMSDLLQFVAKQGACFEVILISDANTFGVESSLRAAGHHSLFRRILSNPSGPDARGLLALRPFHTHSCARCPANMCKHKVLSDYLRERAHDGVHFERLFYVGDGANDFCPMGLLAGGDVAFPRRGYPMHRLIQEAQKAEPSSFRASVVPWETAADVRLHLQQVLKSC
# Chain of NAD-dependent protein deacylase sirtuin-5, mitochondrial (Q9NXA8 whole entry): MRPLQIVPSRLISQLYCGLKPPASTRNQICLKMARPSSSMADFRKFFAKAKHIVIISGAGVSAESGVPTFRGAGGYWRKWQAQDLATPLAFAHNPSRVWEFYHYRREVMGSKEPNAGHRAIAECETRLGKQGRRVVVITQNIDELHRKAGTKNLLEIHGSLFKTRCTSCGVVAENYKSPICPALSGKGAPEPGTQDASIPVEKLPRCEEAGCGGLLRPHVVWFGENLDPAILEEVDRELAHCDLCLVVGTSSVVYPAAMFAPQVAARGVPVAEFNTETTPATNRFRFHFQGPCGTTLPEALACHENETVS
# Chain of Lysine-specific demethylase 4A (O75164 whole entry): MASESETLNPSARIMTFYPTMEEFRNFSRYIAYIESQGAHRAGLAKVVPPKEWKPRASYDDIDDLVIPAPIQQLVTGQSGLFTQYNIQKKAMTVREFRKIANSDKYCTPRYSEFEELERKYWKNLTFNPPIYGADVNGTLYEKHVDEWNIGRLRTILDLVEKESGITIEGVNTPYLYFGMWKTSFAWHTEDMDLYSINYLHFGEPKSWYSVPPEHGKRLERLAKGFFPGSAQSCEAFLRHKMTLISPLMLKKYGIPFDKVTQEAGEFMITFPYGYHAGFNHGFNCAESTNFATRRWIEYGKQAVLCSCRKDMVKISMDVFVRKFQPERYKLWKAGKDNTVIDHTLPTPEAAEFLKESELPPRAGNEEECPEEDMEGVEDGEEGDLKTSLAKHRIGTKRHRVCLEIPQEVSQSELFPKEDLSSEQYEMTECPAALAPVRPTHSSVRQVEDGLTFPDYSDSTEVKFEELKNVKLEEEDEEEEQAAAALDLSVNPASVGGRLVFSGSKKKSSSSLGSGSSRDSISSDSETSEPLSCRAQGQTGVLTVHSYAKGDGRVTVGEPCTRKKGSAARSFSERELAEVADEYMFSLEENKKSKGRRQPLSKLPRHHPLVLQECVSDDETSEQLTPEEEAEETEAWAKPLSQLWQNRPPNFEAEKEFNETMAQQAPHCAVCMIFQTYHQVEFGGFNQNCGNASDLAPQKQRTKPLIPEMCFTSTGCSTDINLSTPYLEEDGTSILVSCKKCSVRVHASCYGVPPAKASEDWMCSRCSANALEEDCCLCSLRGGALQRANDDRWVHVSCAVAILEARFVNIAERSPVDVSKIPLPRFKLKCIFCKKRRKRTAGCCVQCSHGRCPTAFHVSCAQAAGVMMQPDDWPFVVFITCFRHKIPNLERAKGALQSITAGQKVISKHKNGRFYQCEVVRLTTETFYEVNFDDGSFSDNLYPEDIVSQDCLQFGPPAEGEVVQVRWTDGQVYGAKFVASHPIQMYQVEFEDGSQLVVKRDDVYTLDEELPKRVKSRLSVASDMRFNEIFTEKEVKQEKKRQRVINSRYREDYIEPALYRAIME
# Chain of Induced myeloid leukemia cell differentiation protein Mcl-1 (Q07820 whole entry): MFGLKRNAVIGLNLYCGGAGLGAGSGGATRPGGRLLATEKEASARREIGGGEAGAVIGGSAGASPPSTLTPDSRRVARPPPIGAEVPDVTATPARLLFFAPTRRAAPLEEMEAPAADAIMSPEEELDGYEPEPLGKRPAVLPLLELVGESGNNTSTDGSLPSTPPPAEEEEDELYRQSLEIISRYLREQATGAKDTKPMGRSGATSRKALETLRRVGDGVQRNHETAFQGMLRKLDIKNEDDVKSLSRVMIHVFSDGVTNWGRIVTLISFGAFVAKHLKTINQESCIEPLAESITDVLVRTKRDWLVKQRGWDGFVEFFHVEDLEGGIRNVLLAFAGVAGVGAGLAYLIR
# Chain of Bcl-2-like protein 1 (Q07817 whole entry): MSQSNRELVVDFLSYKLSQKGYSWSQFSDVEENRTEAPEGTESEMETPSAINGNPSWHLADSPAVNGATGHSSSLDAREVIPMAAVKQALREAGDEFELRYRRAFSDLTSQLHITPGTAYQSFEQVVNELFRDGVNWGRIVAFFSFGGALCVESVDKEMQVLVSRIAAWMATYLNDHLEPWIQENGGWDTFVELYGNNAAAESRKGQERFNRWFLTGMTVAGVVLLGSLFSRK
# Chain of Phosphomannomutase 2 (O15305 whole entry): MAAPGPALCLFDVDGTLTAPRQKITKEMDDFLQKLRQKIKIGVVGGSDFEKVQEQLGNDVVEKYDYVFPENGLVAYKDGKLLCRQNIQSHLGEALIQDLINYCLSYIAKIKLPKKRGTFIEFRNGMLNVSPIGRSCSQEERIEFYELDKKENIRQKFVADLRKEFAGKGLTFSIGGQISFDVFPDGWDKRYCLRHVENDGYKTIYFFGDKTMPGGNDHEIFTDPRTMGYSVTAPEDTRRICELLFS
# Chain of Lysine-specific demethylase 4C (Q9H3R0 whole entry): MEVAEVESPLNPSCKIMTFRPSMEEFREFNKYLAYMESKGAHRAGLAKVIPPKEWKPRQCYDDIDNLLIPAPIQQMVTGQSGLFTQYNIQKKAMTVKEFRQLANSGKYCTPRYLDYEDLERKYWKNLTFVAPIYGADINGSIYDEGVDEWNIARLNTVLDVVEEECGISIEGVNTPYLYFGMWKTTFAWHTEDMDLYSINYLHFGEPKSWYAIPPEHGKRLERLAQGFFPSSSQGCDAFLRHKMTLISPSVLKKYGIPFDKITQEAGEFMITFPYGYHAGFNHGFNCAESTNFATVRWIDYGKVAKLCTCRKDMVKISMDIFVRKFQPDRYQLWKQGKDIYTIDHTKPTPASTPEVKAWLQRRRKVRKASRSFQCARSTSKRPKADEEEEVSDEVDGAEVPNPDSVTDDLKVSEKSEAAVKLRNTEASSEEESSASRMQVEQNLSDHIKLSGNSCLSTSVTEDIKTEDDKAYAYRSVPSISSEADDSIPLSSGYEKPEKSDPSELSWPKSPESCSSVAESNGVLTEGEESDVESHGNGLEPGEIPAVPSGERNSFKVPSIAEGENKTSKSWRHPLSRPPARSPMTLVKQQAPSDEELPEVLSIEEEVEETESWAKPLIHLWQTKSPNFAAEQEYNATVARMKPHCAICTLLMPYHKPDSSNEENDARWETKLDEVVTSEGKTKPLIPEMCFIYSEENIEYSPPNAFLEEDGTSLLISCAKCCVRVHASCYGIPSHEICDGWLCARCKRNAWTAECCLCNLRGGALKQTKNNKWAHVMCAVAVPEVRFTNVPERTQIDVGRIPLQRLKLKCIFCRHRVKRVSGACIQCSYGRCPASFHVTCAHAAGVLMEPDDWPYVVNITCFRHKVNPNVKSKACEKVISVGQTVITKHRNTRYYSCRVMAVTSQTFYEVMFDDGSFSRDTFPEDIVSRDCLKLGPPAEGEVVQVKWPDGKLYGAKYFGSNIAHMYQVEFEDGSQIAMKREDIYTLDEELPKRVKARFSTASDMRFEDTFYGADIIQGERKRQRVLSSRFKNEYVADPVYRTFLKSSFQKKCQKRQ
# Chain of Genome polyprotein (P29990 2492-3391 limits assumed): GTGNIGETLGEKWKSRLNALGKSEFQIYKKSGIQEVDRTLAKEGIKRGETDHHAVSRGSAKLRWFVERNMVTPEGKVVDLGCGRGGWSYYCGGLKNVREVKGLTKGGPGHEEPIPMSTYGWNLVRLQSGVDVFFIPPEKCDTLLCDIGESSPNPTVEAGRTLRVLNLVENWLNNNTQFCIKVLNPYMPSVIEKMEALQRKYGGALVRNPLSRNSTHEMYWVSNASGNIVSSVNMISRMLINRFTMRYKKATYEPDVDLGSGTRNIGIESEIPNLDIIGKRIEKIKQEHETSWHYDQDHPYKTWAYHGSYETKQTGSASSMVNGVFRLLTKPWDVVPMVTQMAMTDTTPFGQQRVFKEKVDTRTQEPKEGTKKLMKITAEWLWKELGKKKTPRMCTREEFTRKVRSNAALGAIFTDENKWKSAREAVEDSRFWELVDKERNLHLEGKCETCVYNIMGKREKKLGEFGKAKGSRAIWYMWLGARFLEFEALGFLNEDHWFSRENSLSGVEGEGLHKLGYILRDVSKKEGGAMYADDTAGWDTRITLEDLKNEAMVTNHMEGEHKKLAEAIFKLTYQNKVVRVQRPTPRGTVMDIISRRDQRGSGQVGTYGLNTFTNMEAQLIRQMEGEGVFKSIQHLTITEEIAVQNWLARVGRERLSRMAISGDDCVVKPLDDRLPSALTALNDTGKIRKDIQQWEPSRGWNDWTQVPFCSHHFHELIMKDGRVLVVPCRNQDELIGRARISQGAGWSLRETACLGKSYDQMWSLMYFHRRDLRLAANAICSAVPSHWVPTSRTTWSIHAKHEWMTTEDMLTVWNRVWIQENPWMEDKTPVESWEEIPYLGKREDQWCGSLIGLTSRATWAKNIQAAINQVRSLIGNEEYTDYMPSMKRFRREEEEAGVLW
compound,measurement,setting,value
C=CCN(C(=O)CNC(=O)c1ccco1)C(C(=O)NC1CCCCC1)c1ccccc1 (configuration not stated),AC50,[1],101 µM (active)
O=C(NCCNc1ccccc1[N+](=O)[O-])c1cc(F)c(F)cc1Cl,AC50,[2],> 11 µM (active)
same,AC50,[3],> 11 µM (active)
CCc1ccc([C@@H]2CC=C(C(=O)O)[C@H](c3ccc(C(C)(C)C)cc3)N2S(=O)(=O)c2ccc(C)cc2)cc1,AC50,[4],14.8 µM (active)
same,CC50,[5],> 40 µM (active)
same,AC50,[6],13.5 µM (active)
same,AC50,[7],9.31 µM (active)
same,EC50,[8],27.8 µM (active)
same,IC50,[9],< 0.368 µM (active)
same,IC50,[10],37 µM (active)
O=C1c2ccccc2C(=O)c2c1ccc1c(=O)n(-c3ccccc3)sc21,IC50,[11],> 50 µM (inactive)
same,IC50,[12],1.96 µM (inactive)
same,IC50,[13],> 100 µM (inactive)
COc1ccc(C(=O)C2CCCN(CC3CCCCC3)C2)cc1OC (configuration not stated),EC50,[14],0.452 µM (active)
C[C@@H]1CN([C@H](C)CO)C(=O)c2cccc(NC(=O)Nc3ccccc3)c2O[C@H]1CN(C)S(=O)(=O)c1ccc(F)cc1,AC50,[15],38.3 µM (active)
COc1cccc(/C=N/NC(=O)c2cc3cc([N+](=O)[O-])ccc3s2)c1O,IC50,[16],25.2 µM (active)
same,IC50,[17],15.7 µM (active)
same,EC50,[18],9.8 µM (active)
same,IC50,[19],13.1 µM (active)
same,EC50,[20],7.1 µM (active)
same,IC50,[21],14.9 µM (active)
same,IC50,[22],2.02 µM (active)
same,IC50,[23],5.31 µM (active)
same,IC50,[24],> 109 µM (not active)
same,EC50,[25],7.86 µM (active)
same,IC50,[26],116 µM (not active)
same,AC50,[27],3.15 µM (active)
